Measured values as given in ChEMBL document CHEMBL3817784, “The role of transporter ectodomains in drug recognition and binding: phlorizin and the sodiumglucose cotransporter” (Medchemcomm, 2016).

Columns and labels:
Homo sapiens [1] = species on record: Homo sapiens; experiment: Binding affinity to SGLT1 D621W mutant (unknown origin) by tryptophan fluorescence quenching method
Homo sapiens [2] = species on record: Homo sapiens; experiment: Binding affinity to SGLT1 R601W mutant (unknown origin) by tryptophan fluorescence quenching method
[3] = molecular target: T1, Sodium/glucose cotransporter 2 (Rattus norvegicus, UniProt P53792); experiment: Binding affinity to SGLT2 in isolated rat renal cortex brush border membranes using maleimide-PEG800-NHS to couple compound to AFM cantilever tip
T1 sequence (P53792 whole entry): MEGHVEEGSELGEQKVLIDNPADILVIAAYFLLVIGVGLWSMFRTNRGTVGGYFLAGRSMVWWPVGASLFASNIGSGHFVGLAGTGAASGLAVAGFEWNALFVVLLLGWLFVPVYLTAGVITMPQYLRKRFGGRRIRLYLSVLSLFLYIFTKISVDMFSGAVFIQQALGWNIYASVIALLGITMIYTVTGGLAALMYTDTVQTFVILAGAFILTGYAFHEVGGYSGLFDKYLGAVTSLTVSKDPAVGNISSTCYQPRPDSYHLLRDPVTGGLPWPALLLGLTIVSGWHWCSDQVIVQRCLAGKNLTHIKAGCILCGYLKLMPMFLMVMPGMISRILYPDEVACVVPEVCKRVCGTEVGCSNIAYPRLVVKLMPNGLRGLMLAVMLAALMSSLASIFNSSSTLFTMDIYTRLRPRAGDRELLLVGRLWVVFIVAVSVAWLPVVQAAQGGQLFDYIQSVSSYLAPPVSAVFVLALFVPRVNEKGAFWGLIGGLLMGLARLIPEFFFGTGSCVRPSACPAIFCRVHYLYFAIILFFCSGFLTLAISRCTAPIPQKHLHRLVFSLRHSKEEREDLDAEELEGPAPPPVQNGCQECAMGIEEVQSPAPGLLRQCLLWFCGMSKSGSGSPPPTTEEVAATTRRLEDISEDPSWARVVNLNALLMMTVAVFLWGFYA

Row | Qmax (Homo sapiens [1]) | Qmax (Homo sapiens [2]) | Kd [3] | Structure (SMILES)
1 | 80% | 67% | – | O=C(CCc1ccc(O)cc1)c1c(O)cc(O)cc1O[C@@H]1O[C@H](CO)[C@@H](O)[C@H](O)[C@H]1O
2 | – | – | 200 nM | O=C(CCCCCS)Nc1cc(CCC(=O)c2c(O)cc(O)cc2O[C@@H]2O[C@H](CO)[C@@H](O)[C@H](O)[C@H]2O)ccc1O
